Reference: the supplement of paper PMC11061612

Legend:
[1] = test system: SW1783 (Low Grade Glioma); experiment: Bliss excess, mean over the matrix (fraction); higher = more synergy
Outline: (§1)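 Cell lines grown in DMEM/F12 or RPMI with 10% FBS were plated in 1536-well plates and held 24 hours at 37°C, 5% CO2 before 72 hours of exposure to two-drug dose matrices, with DMSO typically at 0.2%. CellTiter-Glo 2.0 luminescence gave viability, which was converted to inhibition. Vehicle wells were set to 0 and blank wells to 1. Combination Emax is the second-highest inhibition in the matrix, and Bliss excess is the observed combination effect minus the expected EA + EB − EA·EB, where EA and EB are the single-agent effects.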

[2] = test system: JiyoyeP-2003 (Burkitt's Lymphoma); experiment: as above
Outline: as §1

[3] = test system: LS-513 (Colorectal Carcinoma); experiment: as above
Outline: as §1

[4] = test system: TE-5 (Esophageal Squamous Cell Carcinoma); experiment: as above
Outline: as §1

[5] = test system: NALM-6 (B-Lymphoblastic Leukemia); experiment: as above
Outline: as §1

[6] = test system: DMS-273 (Small Cell Lung Carcinoma); experiment: as above
Outline: as §1

[7] = test system: IHH-4 (Thyroid Gland Carcinoma); experiment: as above
Outline: as §1

[8] = test system: SUIT-2 (Pancreatic Carcinoma); experiment: as above
Outline: as §1

[9] = test system: NCI-H1694 (Small Cell Lung Carcinoma); experiment: as above
Outline: as §1

NCI-H2369 (Mesothelioma) [10] = experiment: as above
Outline: as §1

[11] = test system: MDA-MB-157 (Breast Carcinoma); experiment: as above
Outline: as §1

[12] = test system: LS-513 (Colorectal Carcinoma); experiment: combination Emax (second highest fraction inhibited in the dose matrix, 72 h); higher = more inhibition; extreme values may be limits of the assay
Outline: as §1

[13] = test system: OCI-AML2 (Acute Myeloid Leukemia); experiment: as above
Outline: as §1

[14] = test system: NALM-6 (B-Lymphoblastic Leukemia); experiment: as above
Outline: as §1

[15] = test system: MFH-ino (Other Solid Carcinomas); experiment: as above
Outline: as §1

[16] = test system: SUIT-2 (Pancreatic Carcinoma); experiment: as above
Outline: as §1

[17] = test system: SW1088 (Low Grade Glioma); experiment: as above
Outline: as §1

NCI-H2595 (Mesothelioma) = experiment: as above
Outline: as §1

NCI-H2369 (Mesothelioma) [18] = experiment: as above
Outline: as §1

[19] = test system: U-266 (Plasma Cell Myeloma); experiment: as above
Outline: as §1
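Wherever Bliss excess, mean over the matrix is given: after 72 h of two-drug dosing.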

SMILES	Bliss excess [1]	Bliss excess [2]	Bliss excess [3]	Bliss excess [4]	Bliss excess [5]	Bliss excess [6]	Bliss excess [7]	Bliss excess [8]	Bliss excess [9]	Bliss excess (NCI-H2369 (Mesothelioma) [10])	Bliss excess [11]	combination Emax [12]	combination Emax [13]	combination Emax [14]	combination Emax [15]	combination Emax [16]	combination Emax [17]	combination Emax (NCI-H2595 (Mesothelioma))	combination Emax (NCI-H2369 (Mesothelioma) [18])	combination Emax [19]
CN(CCO)CC[C@H](CSc1ccccc1)Nc1ccc(S(=O)(=O)NC(=O)c2ccc(N3CCC([C@@H](O)c4ccccc4-c4ccc(Cl)cc4)CC3)cc2)cc1S(=O)(=O)C(F)(F)F [AZD4320] + C=CCn1c(=O)c2cnc(Nc3ccc(N4CCN(C)CC4)cc3)nc2n1-c1cccc(C(C)(C)O)n1 [AZD1775] (first compound max 1 µM, partner max 1 µM)	0.0433	0.0154	-0.0134	0.0773	0.0725	-0.0229	0.0051	-0.0088	0.0834	-0.0413	0.0043	0.866	1	1	0.237	0.491	0.391	0.141	0.189	0.95
CN(CCO)CC[C@H](CSc1ccccc1)Nc1ccc(S(=O)(=O)NC(=O)c2ccc(N3CCC([C@@H](O)c4ccccc4-c4ccc(Cl)cc4)CC3)cc2)cc1S(=O)(=O)C(F)(F)F [AZD4320] + CCN(CCO)CCCOc1ccc2c(Nc3cc(CC(=O)Nc4cccc(F)c4)[nH]n3)ncnc2c1 [AZD2811] (first compound max 1 µM, 7x7, partner max 1 µM)	-0.0701	0.057	-0.0584	0.0379	0.0868	-0.0732	-0.0372	-0.0472	0.169	0.0005	0.0101	0.414	1	0.98	0.102	0.089	0.306	0.125	0.378	0.718
CN(CCO)CC[C@H](CSc1ccccc1)Nc1ccc(S(=O)(=O)NC(=O)c2ccc(N3CCC([C@@H](O)c4ccccc4-c4ccc(Cl)cc4)CC3)cc2)cc1S(=O)(=O)C(F)(F)F [AZD4320] + CN(C)CCCOc1ccc(-c2ccc3ncc4c(c3c2)n(C2CCOCC2)c(=O)n4C)cn1 [AZD0156] (first compound max 1 µM, 7x7, partner max 1 µM)	-0.0298	-0.0211	-0.0391	-0.0135	0.0217	-0.0199	-0.022	-0.0407	0.0791	-0.036	-0.0046	0.2	1	0.973	0.102	0.0928	0.164	0.12	0.0933	0.506
CN(CCO)CC[C@H](CSc1ccccc1)Nc1ccc(S(=O)(=O)NC(=O)c2ccc(N3CCC([C@@H](O)c4ccccc4-c4ccc(Cl)cc4)CC3)cc2)cc1S(=O)(=O)C(F)(F)F [AZD4320] + C[C@@H]1COCCN1C2=NC(=NC(=C2)C3(CC3)[S@](=N)(=O)C)C4=C5C=CNC5=NC=C4 [AZD6738] (first compound max 1 µM, 7x7, partner max 10 µM)	-0.106	-0.0334	-0.0354	0.0256	0.0379	-0.025	-0.0231	-0.098	0.0238	0.0246	-0.0254	0.821	1	1	0.51	0.522	0.586	0.214	0.324	0.834
CN(CCO)CC[C@H](CSc1ccccc1)Nc1ccc(S(=O)(=O)NC(=O)c2ccc(N3CCC([C@@H](O)c4ccccc4-c4ccc(Cl)cc4)CC3)cc2)cc1S(=O)(=O)C(F)(F)F [AZD4320] + C[C@@H](Nc1cc(F)cc(F)c1)c1cc(C(=O)N(C)C)cc2c(=O)cc(N3CCOCC3)oc12 [AZD8186] (first compound max 1 µM, 7x7, partner max 3 µM)	-0.0348	0.0195	-0.0076	-0.0144	0.0514	0.0236	0.0438	0.025	0.0454	-0.0251	0.0338	0.708	1	0.997	0.397	0.245	0.515	0.271	0.375	0.481
CN(CCO)CC[C@H](CSc1ccccc1)Nc1ccc(S(=O)(=O)NC(=O)c2ccc(N3CCC([C@@H](O)c4ccccc4-c4ccc(Cl)cc4)CC3)cc2)cc1S(=O)(=O)C(F)(F)F [AZD4320] + Cc1cc2ncnn2cc1Nc1ncc2c(n1)n(C1CCOCC1)c(=O)n2C [AZD7648] (first compound max 1 µM, 7x7, partner max 10 µM)	-0.044	-0.0322	-0.0543	-0.033	-0.0061	0.0127	-0.0451	-0.0389	0.0357	-0.0411	-0.0225	0.155	1	0.975	0.161	0.104	0.332	0.12	0.0705	0.622
